From PMC10365998, “An ATP-sensitive phosphoketolase regulates carbon fixation in cyanobacteria” (Nature Metabolism, 2023)
Blank lines part the entries; values can stand above or below the molecule they belong to.

Legend:
[1] = molecular target: Bifidobacterium longum phosphoketolase (B. longum XPK) (B. longum); assay: cryo-EM structure; purified B. longum XPK with TPP/Mg2+, free form; D4 symmetry, focused refinement of one dimer
SeXPK [2] = molecular target: T1, SeXPK (Synechococcus elongatus, UniProt Q31LF9); assay: cryo-EM structure; format: binding; conditions: 2 mM AMPPNP; allosteric site at dimer interface, two per dimer, no Mg2+ bound; TPP/Mg2+ present
T1 construct: gene Synpcc7942_2080; N-terminal 6His tag, pDC vector, E. coli; dodecamer of six dimers; purified with TPP/Mg2+
T1 sequence (Q31LF9 1-796): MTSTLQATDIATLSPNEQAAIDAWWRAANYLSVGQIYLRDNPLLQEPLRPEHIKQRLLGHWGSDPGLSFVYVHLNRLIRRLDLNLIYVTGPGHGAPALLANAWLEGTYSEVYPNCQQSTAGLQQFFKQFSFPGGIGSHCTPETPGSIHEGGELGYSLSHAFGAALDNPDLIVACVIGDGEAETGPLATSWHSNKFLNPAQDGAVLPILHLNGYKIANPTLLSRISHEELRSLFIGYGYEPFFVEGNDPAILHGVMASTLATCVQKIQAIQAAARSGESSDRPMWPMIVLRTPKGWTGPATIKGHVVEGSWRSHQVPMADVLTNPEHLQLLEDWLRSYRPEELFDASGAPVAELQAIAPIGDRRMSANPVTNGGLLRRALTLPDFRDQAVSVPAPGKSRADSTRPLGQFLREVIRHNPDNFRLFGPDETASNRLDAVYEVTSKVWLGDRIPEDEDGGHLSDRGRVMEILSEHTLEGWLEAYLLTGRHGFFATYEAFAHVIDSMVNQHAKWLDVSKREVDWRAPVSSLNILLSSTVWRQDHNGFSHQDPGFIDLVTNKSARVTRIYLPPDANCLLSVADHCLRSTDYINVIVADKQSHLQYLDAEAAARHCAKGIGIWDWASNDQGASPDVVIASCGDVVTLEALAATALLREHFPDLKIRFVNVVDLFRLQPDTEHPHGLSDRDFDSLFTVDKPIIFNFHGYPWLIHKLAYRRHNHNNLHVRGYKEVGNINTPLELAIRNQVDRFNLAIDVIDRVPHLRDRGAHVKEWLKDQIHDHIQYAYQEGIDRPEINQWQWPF

[3] = molecular target: T2, Methylomonas sp. XPK (MeXPK) (Methylomonas sp. DH-1, UniProt A0A172UD65); assay: acetyl phosphate formation, hydroxamate colorimetric assay; format: biochemical; conditions: F6P varied, 30 mM phosphate, pH 6.4, 1 mM TPP, 1 mM MgCl2; allosteric
T2 construct: same plasmid as SeXPK (N-terminal 6His tag), expressed in E. coli and purified
T2 sequence (A0A172UD65 1-788): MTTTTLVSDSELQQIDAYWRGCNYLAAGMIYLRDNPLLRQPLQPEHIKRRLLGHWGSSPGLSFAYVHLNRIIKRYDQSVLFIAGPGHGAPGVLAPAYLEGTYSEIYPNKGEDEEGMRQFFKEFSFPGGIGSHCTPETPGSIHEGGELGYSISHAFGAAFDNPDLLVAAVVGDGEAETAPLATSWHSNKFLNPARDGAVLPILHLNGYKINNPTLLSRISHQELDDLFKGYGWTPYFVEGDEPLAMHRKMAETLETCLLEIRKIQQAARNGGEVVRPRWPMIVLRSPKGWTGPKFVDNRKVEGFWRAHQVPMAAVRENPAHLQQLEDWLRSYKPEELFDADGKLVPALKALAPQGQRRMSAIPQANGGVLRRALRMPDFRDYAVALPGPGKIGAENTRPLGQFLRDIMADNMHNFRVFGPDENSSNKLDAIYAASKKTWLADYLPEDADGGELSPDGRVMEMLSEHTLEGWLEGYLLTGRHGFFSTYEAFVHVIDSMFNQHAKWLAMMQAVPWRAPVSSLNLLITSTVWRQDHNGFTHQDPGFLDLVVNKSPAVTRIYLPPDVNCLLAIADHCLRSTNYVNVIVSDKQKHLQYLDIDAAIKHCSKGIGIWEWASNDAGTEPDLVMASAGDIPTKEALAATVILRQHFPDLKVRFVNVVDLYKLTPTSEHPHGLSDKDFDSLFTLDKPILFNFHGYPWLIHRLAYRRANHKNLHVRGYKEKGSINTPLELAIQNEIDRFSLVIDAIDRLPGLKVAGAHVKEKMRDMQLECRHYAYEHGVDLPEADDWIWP
Source text: acetyl phosphate formation, hydroxamate colorimetric assay on Methylomonas sp.

SeXPK [4] = molecular target: T1, SeXPK; assay: as above; format: biochemical; conditions: F6P varied, 30 mM phosphate, pH 6.4, 1 mM TPP, 1 mM MgCl2; allosteric
SeXPK [5] = molecular target: T3, SeXPK (Synechococcus elongatus, UniProt Q31LF9, H706R); assay: as above; format: biochemical; conditions: 30 mM phosphate, pH 6.4, 1 mM TPP, 1 mM MgCl2; no ATP
T3 construct: gene Synpcc7942_2080; N-terminal 6His tag, pDC vector, E. coli; dodecamer of six dimers; purified with TPP/Mg2+
T3 sequence (Q31LF9 whole entry H706R): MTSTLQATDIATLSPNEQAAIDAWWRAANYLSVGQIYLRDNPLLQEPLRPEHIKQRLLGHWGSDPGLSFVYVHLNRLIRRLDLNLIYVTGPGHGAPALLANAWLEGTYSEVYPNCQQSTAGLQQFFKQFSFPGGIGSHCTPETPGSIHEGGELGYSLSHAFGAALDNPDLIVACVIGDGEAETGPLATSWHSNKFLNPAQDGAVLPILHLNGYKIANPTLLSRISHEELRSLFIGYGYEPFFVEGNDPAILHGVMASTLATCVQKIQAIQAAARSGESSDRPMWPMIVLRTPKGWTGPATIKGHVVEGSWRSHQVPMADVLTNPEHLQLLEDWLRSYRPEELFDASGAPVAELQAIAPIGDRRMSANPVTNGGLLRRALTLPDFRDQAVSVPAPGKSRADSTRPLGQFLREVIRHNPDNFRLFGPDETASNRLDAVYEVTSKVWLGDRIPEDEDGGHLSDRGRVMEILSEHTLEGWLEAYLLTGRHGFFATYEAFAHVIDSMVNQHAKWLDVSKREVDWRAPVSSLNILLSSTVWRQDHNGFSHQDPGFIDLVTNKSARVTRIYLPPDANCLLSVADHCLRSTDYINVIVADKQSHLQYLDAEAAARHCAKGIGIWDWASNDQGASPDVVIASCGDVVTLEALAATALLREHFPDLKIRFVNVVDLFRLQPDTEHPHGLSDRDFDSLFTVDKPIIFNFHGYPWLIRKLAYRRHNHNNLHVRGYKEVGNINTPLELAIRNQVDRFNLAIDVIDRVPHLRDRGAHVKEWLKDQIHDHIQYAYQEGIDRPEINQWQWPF

SeXPK [6] = molecular target: T4, SeXPK (Synechococcus elongatus, UniProt Q31LF9, H706A); assay: as above; format: biochemical; conditions: 30 mM phosphate, pH 6.4, 1 mM TPP, 1 mM MgCl2; no ATP; most activity lost
T4 construct: gene Synpcc7942_2080; N-terminal 6His tag, pDC vector, E. coli; dodecamer of six dimers; purified with TPP/Mg2+
T4 sequence (Q31LF9 whole entry H706A): as the sequence (Q31LF9 whole entry H706R) above, with R706A counted along it

[7] = molecular target: T2, Methylomonas sp. XPK (MeXPK); assay: as above; format: biochemical; conditions: 30 mM phosphate, pH 6.4, 1 mM TPP, 1 mM MgCl2; no ATP
Source text: acetyl phosphate formation, hydroxamate colorimetric assay on Methylomonas sp. XPK (MeXPK) | Methylomonas sp.

SeXPK [8] = molecular target: T5, SeXPK (Synechococcus elongatus, UniProt Q31LF9, Y710A); assay: as above; format: biochemical; conditions: 30 mM phosphate, pH 6.4, 1 mM TPP, 1 mM MgCl2; no ATP
T5 construct: gene Synpcc7942_2080; N-terminal 6His tag, pDC vector, E. coli; dodecamer of six dimers; purified with TPP/Mg2+
T5 sequence (Q31LF9 whole entry Y710A): as the sequence (Q31LF9 whole entry H706R) above, with R706H, Y710A counted along it

[9] = molecular target: the molecule itself; assay: cryo-EM structure; purified SeXPK ~0.4 mg/ml (2.2 µM of dimer) in 20 mM HEPES-NaOH pH 7.2, 0.1 M NaCl, 0.2 mM TPP, 1 mM MgCl2; free and with 2 mM AMPPNP; D6 symmetry, focused refinement of one dimer

stoichiometry N [1]: 8
Molecule: Bifidobacterium longum phosphoketolase (B. longum XPK) (enzyme)

Molecule: Nc1ncnc2c1ncn2[C@@H]1O[C@H](COP(=O)(O)OP(=O)(O)NP(=O)(O)O)[C@@H](O)[C@H]1O [AMPPNP, phosphoaminophosphonic acid adenylate ester]
cryo-EM structure (SeXPK [2]): the two subunits jointly bind two AMPPNP

Molecule: Nc1ncnc2c1ncn2[C@@H]1O[C@H](COP(=O)(O)OP(=O)(O)OP(=O)(O)O)[C@@H](O)[C@H]1O [ATP, adenosine-5′-triphosphate]
inhibition [3]: its allosteric inhibition by ATP was validated based on steady-state kinetics
inhibition at 0.5, 1 or 2 mM (SeXPK [4]): SeXPK is inhibited in vitro by ATP through an allosteric mode

acetyl phosphate formation, hydroxamate colorimetric assay (SeXPK [6]): H706A mutant of SeXPK lost most activity
acetyl phosphate formation, hydroxamate colorimetric assay (SeXPK [8]): Y710A mutant of SeXPK lost most activity
Molecule: O=P(O)(O)OC[C@H]1OC(O)(CO)[C@@H](O)[C@@H]1O (stereo partly drawn) [F6P]
ATP sensitivity of activity (SeXPK [5]): H706R mutant of SeXPK shows only minor effect by ATP
Km [7]: Methylomonas sp. XPK (MeXPK) is also inhibited by ATP

B1: Synechococcus elongatus PCC7942 phosphoketolase (SeXPK) (enzyme)
chain: MTSTLQATDIATLSPNEQAAIDAWWRAANYLSVGQIYLRDNPLLQEPLRPEHIKQRLLGHWGSDPGLSFVYVHLNRLIRRLDLNLIYVTGPGHGAPALLANAWLEGTYSEVYPNCQQSTAGLQQFFKQFSFPGGIGSHCTPETPGSIHEGGELGYSLSHAFGAALDNPDLIVACVIGDGEAETGPLATSWHSNKFLNPAQDGAVLPILHLNGYKIANPTLLSRISHEELRSLFIGYGYEPFFVEGNDPAILHGVMASTLATCVQKIQAIQAAARSGESSDRPMWPMIVLRTPKGWTGPATIKGHVVEGSWRSHQVPMADVLTNPEHLQLLEDWLRSYRPEELFDASGAPVAELQAIAPIGDRRMSANPVTNGGLLRRALTLPDFRDQAVSVPAPGKSRADSTRPLGQFLREVIRHNPDNFRLFGPDETASNRLDAVYEVTSKVWLGDRIPEDEDGGHLSDRGRVMEILSEHTLEGWLEAYLLTGRHGFFATYEAFAHVIDSMVNQHAKWLDVSKREVDWRAPVSSLNILLSSTVWRQDHNGFSHQDPGFIDLVTNKSARVTRIYLPPDANCLLSVADHCLRSTDYINVIVADKQSHLQYLDAEAAARHCAKGIGIWDWASNDQGASPDVVIASCGDVVTLEALAATALLREHFPDLKIRFVNVVDLFRLQPDTEHPHGLSDRDFDSLFTVDKPIIFNFHGYPWLIHKLAYRRHNHNNLHVRGYKEVGNINTPLELAIRNQVDRFNLAIDVIDRVPHLRDRGAHVKEWLKDQIHDHIQYAYQEGIDRPEINQWQWPF
notes: phosphoketolase (XPK) of Synechococcus elongatus PCC7942, locus Synpcc7942_2080; Carries the coenzyme TPP/Mg2+; studied free and with 2 mM AMPPNP; Dodecamer of six dimers by cryo-EM; also called S. elongatus PCC7942 XPK; Synpcc7942_2080; source: E. coli DH5αDE3.1, purified (His-Tag resin, Q Sepharose, Superdex 200); copies: 12
stoichiometry N [9]: 12
